Source: patent US10864196B2, “Modulators of the integrated stress pathway” (Calico Life Sciences LLC, priority 2016, dated 2020)

Each molecule was assayed on HEK293T cells carrying the ATF4 luciferase reporter (assay: ATF4-Luc assay (in vitro model of VWMD)). Conditions: Homo sapiens, HEK-293T, 1 μg/mL tunicamycin, 7 hours, One Glo luminescence.
Format: cell-based
Protocol: In order to test exemplary compounds of the invention in a cellular context, a stable VWMD cell line was first constructed. The ATF4 reporter was prepared by fusing the human full-length ATF4 5′-UTR (NCBI Accession No. BC022088.2) in front of the firefly luciferase (FLuc) coding sequence lacking the initiator methionine as described in Sidrauski et al (eLife 2013). The construct was used to produce recombinant retroviruses using standard methods and the resulting viral supernatant was used to transduce HEK293T cells, which were then subsequently selected with puromycin to generate a stable cell line.
HEK293T cells carrying the ATF4 luciferase reporter were plated on polylysine coated 384-well plates (Greiner Bio-one) at 30,000 cells per well. Cells were treated the next day with 1 μg/mL tunicamycin and 200 nM of a compound of Formula (I) for 7 hours. Luminescence was measured using One Glo (Promega) as specified by the manufacturer. Cells were maintained in DMEM with L-glutamine supplemented with 10% heat-inactivated FBS (Gibco) and Antibiotic-Antimycotic solution (Gibco).
Table 2 below summarizes the EC50 data obtained using the ATF4-Luc assay for exemplary compounds of the invention.
`O=C(COc1ccc(Cl)c(F)c1)NC12CC(c3nc(COc4ccc(C5CC5)nc4)no3)(C1)C2` [Compound 163, 2-(4-chloro-3-fluorophenoxy)-N-[3-(3-{[(6-cyclopropylpyridin-3-yl)oxy]methyl}-1,2,4-oxadiazol-5-yl)bicyclo[1.1.1]pentan-1-yl]acetamide] was tested, and the EC50 was 250 to 1000 nM. `O=C(COc1ccc(Cl)c(F)c1)NC12CC(c3nnc(Oc4ccc(Cl)cc4)o3)(C1)C2` [Compound 128, 2-(4-chloro-3-fluorophenoxy)-N-{3-[5-(4-chlorophenoxy)-1,3,4-oxadiazol-2-yl]bicyclo[1.1.1]pentan-1-yl}acetamide] was tested, and the EC50 was < 50 nM. Molecule `O=C(COc1ccc(Cl)cc1)NC12CC(c3nnc(COc4ccc(Cl)cc4)o3)(C1)C2` [Compound 100, 2-(4-chlorophenoxy)-N-(3-{5-[(4-chlorophenoxy)methyl]-1,3,4-oxadiazol-2-yl}bicyclo[1.1.1]pentan-1-yl)acetamide] has an EC50 of 50 to 250 nM. In the case of `COCc1nnc(C23CCC(NC(=O)COc4ccc(Cl)c(F)c4)(CC2)CC3O)o1` (stereo not drawn) [Compound 165, 2-(4-chloro-3-fluorophenoxy)-N-{3-hydroxy-4-[5-(methoxymethyl)-1,3,4-oxadiazol-2-yl]bicyclo[2.2.2]octan-1-yl}acetamide], the EC50 is reported as 250 to 1000 nM. With `O=C(COc1ccc(Cl)c(F)c1)NC12CCC(c3nnc(Oc4ccc(Cl)c(F)c4)o3)(CC1)C(O)C2` (stereo not drawn) [Compound 170, 2-(4-chloro-3-fluorophenoxy)-N-{4-[5-(4-chloro-3-fluorophenoxy)-1,3,4-oxadiazol-2-yl]-3-hydroxybicyclo[2.2.2]octan-1-yl}acetamide] the EC50 was < 50 nM. With `O=C(COc1ccc(Cl)c(F)c1)NC12CC(c3nnc(COc4ccc(Cl)c(F)c4)o3)(C1)C2` [Compound 115, 2-(4-chloro-3-fluorophenoxy)-N-(3-{5-[(4-chloro-3-fluorophenoxy)methyl]-1,3,4-oxadiazol-2-yl}bicyclo[1.1.1]pentan-1-yl)acetamide] the EC50 was < 50 nM. For `O=C(COc1ccc(Cl)c(Cl)c1)NC12CC(c3nnc(COc4ccc(Cl)cc4)o3)(C1)C2` [Compound 109, N-(3-{5-[(4-chlorophenoxy)methyl]-1,3,4-oxadiazol-2-yl}bicyclo[1.1.1]pentan-1-yl)-2-(3,4-dichlorophenoxy)acetamide], the EC50 was < 50 nM. Work on `COc1ccc(Oc2nnc(C34CC(NC(=O)COc5ccc(Cl)c(F)c5)(C3)C4)o2)cc1` [Compound 125, 2-(4-chloro-3-fluorophenoxy)-N-{3-[5-(4-methoxyphenoxy)-1,3,4-oxadiazol-2-yl]bicyclo[1.1.1]pentan-1-yl}acetamide] yielded an EC50 of 250 to 1000 nM. `Cc1ncc(OCc2nnc(C34CC(NC(=O)COc5ccc(Cl)c(F)c5)(C3)C4)o2)cc1Cl` [Compound 145, 2-(4-chloro-3-fluorophenoxy)-N-[3-(5-{[(5-chloro-6-methylpyridin-3-yl)oxy]methyl}-1,3,4-oxadiazol-2-yl)bicyclo[1.1.1]pentan-1-yl]acetamide] gave an EC50 of 50 to 250 nM. With `O=C(COc1ccc(Cl)c(F)c1)NC12CC(c3nnc(Oc4cccc(C(F)(F)F)c4)o3)(C1)C2` [Compound 139, 2-(4-chloro-3-fluorophenoxy)-N-(3-{5-[3-(trifluoromethyl)phenoxy]-1,3,4-oxadiazol-2-yl}bicyclo[1.1.1]pentan-1-yl)acetamide] the EC50 was < 50 nM. With `Cc1ccc(OCC(=O)NC23CC(c4nc(COc5ccc(Cl)cc5)no4)(C2)C3)cc1` [Compound 103, N-(3-{3-[(4-chlorophenoxy)methyl]-1,2,4-oxadiazol-5-yl}bicyclo[1.1.1]pentan-1-yl)-2-(4-methylphenoxy)acetamide] the EC50 was 50 to 250 nM. For `N#Cc1cncc(OCc2nnc(C34CC(NC(=O)COc5ccc(Cl)c(F)c5)(C3)C4)o2)c1` [Compound 144, 2-(4-chloro-3-fluorophenoxy)-N-[3-(5-{[(5-cyanopyridin-3-yl)oxy]methyl}-1,3,4-oxadiazol-2-yl)bicyclo[1.1.1]pentan-1-yl]acetamide], the EC50 was > 2000 nM. Molecule `O=C(COc1ccc(Cl)c(F)c1)NC12CC(c3nnc(COc4cnc5cc[nH]c5c4)o3)(C1)C2` [Compound 149, 2-(4-chloro-3-fluorophenoxy)-N-[3-(5-{[(1H-pyrrolo[3,2-b]pyridin-6-yl)oxy]methyl}-1,3,4-oxadiazol-2-yl)bicyclo[1.1.1]pentan-1-yl]acetamide] has an EC50 of 1000 to 2000 nM. In the case of `O=C(COc1ccc(Cl)c(F)c1)NC12CC(c3nc(COc4ccc(Cl)c(F)c4)c[nH]3)(C1)C2` [Compound 168, 2-(4-chloro-3-fluorophenoxy)-N-(3-{4-[(4-chloro-3-fluorophenoxy)methyl]-1H-imidazol-2-yl}bicyclo[1.1.1]pentan-1-yl)acetamide], the EC50 is reported as < 50 nM. For `Cc1cccc(OCC(=O)NC23CC(c4nc(COc5ccc(Cl)cc5)no4)(C2)C3)c1` [Compound 102, N-(3-{3-[(4-chlorophenoxy)methyl]-1,2,4-oxadiazol-5-yl}bicyclo[1.1.1]pentan-1-yl)-2-(3-methylphenoxy)acetamide], the EC50 was 1000 to 2000 nM. `O=C(COc1cccc(F)c1)NC12CC(c3nc(COc4ccc(Cl)cc4)no3)(C1)C2` [Compound 107, N-(3-{3-[(4-chlorophenoxy)methyl]-1,2,4-oxadiazol-5-yl}bicyclo[1.1.1]pentan-1-yl)-2-(3-fluorophenoxy)acetamide] was tested, and the EC50 was 250 to 1000 nM. `Cc1ccc(OCc2nnc(C34CC(NC(=O)COc5ccc(Cl)c(F)c5)(C3)C4)o2)cn1` [Compound 146, 2-(4-chloro-3-fluorophenoxy)-N-[3-(5-{[(6-methylpyridin-3-yl)oxy]methyl}-1,3,4-oxadiazol-2-yl)bicyclo[1.1.1]pentan-1-yl]acetamide] gave an EC50 of 250 to 1000 nM. For `O=C(COc1ccc(Cl)cc1F)NC12CC(c3nc(COc4ccc(Cl)cc4)no3)(C1)C2` [Compound 111, 2-(4-chloro-2-fluorophenoxy)-N-(3-{3-[(4-chlorophenoxy)methyl]-1,2,4-oxadiazol-5-yl}bicyclo[1.1.1]pentan-1-yl)acetamide], the EC50 was 50 to 250 nM. `O=C(COc1ccc(Cl)c(F)c1)NC12CCC(c3nc(COc4ccc(C(F)(F)F)nc4)no3)(CC1)C(O)C2` (stereo not drawn) [Compound 166, 2-(4-chloro-3-fluorophenoxy)-N-{3-hydroxy-4-[3-({[6-(trifluoromethyl)pyridin-3-yl]oxy}methyl)-1,2,4-oxadiazol-5-yl]bicyclo[2.2.2]octan-1-yl}acetamide] was tested, and the EC50 was 250 to 1000 nM. Work on `O=C(COc1ccc(Cl)c(F)c1)NC12CC(c3nnc(Oc4ccc(C(F)(F)F)nc4)o3)(C1)C2` [Compound 116, 2-(4-chloro-3-fluorophenoxy)-N-[3-(5-{[6-(trifluoromethyl)pyridin-3-yl]oxy}-1,3,4-oxadiazol-2-yl)bicyclo[1.1.1]pentan-1-yl]acetamide] yielded an EC50 of 50 to 250 nM. With `CCc1nc(C)ccc1OCc1nnc(C23CC(NC(=O)COc4ccc(Cl)c(F)c4)(C2)C3)o1` [Compound 153, 2-(4-chloro-3-fluorophenoxy)-N-[3-(5-{[(2-ethyl-6-methylpyridin-3-yl)oxy]methyl}-1,3,4-oxadiazol-2-yl)bicyclo[1.1.1]pentan-1-yl]acetamide] the EC50 was > 2000 nM.
